This is an account of results in US20030113819A1, “Carrier peptide and method for delivery of molecules into cells” (priority 2002, published 2003).

“Also recorded” adds a separate entry of the source. No end group written: not given here. Cy5Q = quencher

One data set concerns NIH 3T3. The data set is described as follows: Selective permeabilisation with digitonin (cytosolic vs organelle fraction fluorescence). Format: cell-based, Mouse. To be noted: 60 min incubation, 20 μM digitonin 3 min, FIG. 8. The procedure: Mouse fibroblasts (NIH 3T3) were cultured at 1×10^6 cells/ml in DMEM (see above) on 24-well tissue culture plates (Costar Inc.). Cells were incubated with Cy3- labelled carrier peptides (H2N-Ala-Pro-Thr-Arg-Val-Pro-Leu-Pro-Leu-Pro-Val-Gly-Gly-Lys-OH (SEQ ID No.4); H2N-Ala-Pro-Thr-Arg-Ala-Val-Leu-Pro-Leu-Ala-Val-Gly-Gly-Lys-OH (SEQ ID No.5); H2N-Ala-Pro-Thr-Arg-Val-Leu-Pro-Pro-Leu-Val-Ala-Gly-Gly-Lys-OH (SEQ ID No.6); H2N-Ala-Pro-Thr-Arg-Val-Leu-Leu-Pro-Leu-Leu-Val-Gly-Gly-Lys-OH (SEQ ID No.7) for 60 minutes (5% CO2, 37° C., 95% humidity). Cells were washed (×4) with PBS, before addition of 20 μM digitonin for 3 minutes. Cells were rapidly centrifuged (10,000×g, for 5 minutes) to separate into supernatant (cytosolic) and pellet (organelle) fractions. The fluorescence activity was then measured using a CytoFluor multi-well plate reader (activating at 530 nm, emission 590 nm). Unlabelled cells (cells without dye), unlabelled Cy3 (unlinked dye) (Amersham Pharmacia Biotech), and, untreated cells (unpermeabilised cells without digitonin), were used as controls. […] Cytosolic preparations were confirmed using an assay for cytoplasmic lactic dehydrogenase (LDH) in the presence of PNADH (Wroblewski & LaDue, Proc. Soc. Exp. Biol. Med. 1955, (90), 210-213.

The subject of a further data set is parental SK-OV cells. The data set is described as follows: Nitroreductase assay, delivery of nitroreductase reporter, non-transfected cells. Format: cell-based, Human. Conditions: 10 μM, parental cell lines, FIG. 9. From the text:
(§1) As disclosed in PCT/GB99/01746, the fluorescence properties of cyanine dyes may be modified by substitution of the dye with nitro, and/or dinitrobenzyl groups, which have the effect of reducing or abolishing the fluorescence from the molecule. An example of such a quenching or “dark” dye is Cy5Q (Amersham Pharmacia Biotech). In the presence of the enzyme, nitroreductase (NTR), a nitro-group substituent of Cy5Q may be converted to an amino-group, with the result that there is an increase in the fluorescence intensity of the dye. This may be used as the basis for an assay for the measurement of intracellular nitroreductase. In this example, Cy5Q is conjugated to a carrier peptide and is used as an indicator of nitroreductase (NTR) in whole, living cells.
(§2) The assay may be carried out using cells transfected with DNA encoding the gene for bacterial NTR, such that when the Cy5Q conjugate is introduced into such a transfected cell line, an increase in fluorescence is measured. […]
(§3) Cy5Q chemically linked to the carrier peptide Ac-Ala-Pro-Thr-Arg-Val-Leu-Pro-Pro-Leu-Val-Ala-Gly-Gly-Lys-amide was incubated with cells (30,000 cells/well) (1-5 hours, 5% CO2, 37° C., 95% humidity), cells washed (×3) with PBS and fluorescence measured from below, using a CytoFluor multi-well plate reader (Applied Biosystems), (activating at 610 nm, emission 670 nm). […]

Data set [1] relates to SK-OV-NTR cells (SK-OV-3 stably transfected with bacterial NTR genes). Kind of data set: Nitroreductase assay, delivery of nitroreductase reporter, transfected cells. It is filed as cell-based, Human. To be noted: 10 μM, 5 hour incubation.
Source text: as §1, §2, §3

Data set [2] deals with NIH 3T3 cells. Kind of data set: Flow cytometry of cells incubated with Cy3 linked to carrier peptide. Format: cell-based, Mouse. Conditions: 1 μM, 60 min. How it is done:
Mouse fibroblasts (NIH 3T3 cells) were cultured in DMEM (see above) on 24-well tissue culture plates (Costar Inc.). Cells were incubated (60 min, 5% CO2, 37° C., 95% humidity) with Cy3 (1 μM) linked to carrier peptide (H2N-Ala-Pro-Thr-Arg-Val-Leu-Pro-Pro-Leu-Val-Ala-Gly-Gly-Lys-OH (SEQ ID No.6)). After incubation, the culture supernatant was decanted and the cells washed. Cells were trypsinised (0.25% w/v, 5 min) and re-suspended in PBS, before analysis by flow cytometry (see below). Untreated cells and Cy3 only (unlinked dye) (Amersham Pharmacia Biotech) were used as controls.
All samples were analyzed on a FACSCalibur Flow Cytometry System (Becton Dickinson, San Jose, Calif., USA) with CellQuest software. The instrument is equipped with a 488 nm argon-ion laser and 5 detection parameters. There are 2 scatter detectors, known as forward scatter (FSC) and side scatter (SSC) which provide information about cellular size and internal complexity, respectively. In addition, there are three relative fluorescence intensity detectors. Cy3 labelling was monitored with the second fluorescence detector (FL2) fitted with a 585/42 nm filter. […]
Histogram markers were set so that only 2-3% of the recorded events were past the FL2 channel marker 30 for the dye only control.
(In general: Flow cytometry measures light scatter and fluorescence of single cells or particles in a stream.)

Data set [3] has as its system NIH 3T3 cells. Kind of data set: Cellular uptake of Cy3 linked to carrier peptide (plate reader, fluorescence and confocal microscopy). It is filed as cell-based, Mouse. How it is done: Mouse fibroblasts (NIH 3T3) or human ovary adenocarcinoma (SK-OV) cells were cultured in Dulbecco's modified Eagle's medium (DMEM) supplemented with 10% (v/v) foetal calf serum (FCS), 4 mM L-glutamine, 100 U/ml penicillin and 100 μg/ml streptomycin. NIH 3T3 cells were grown on 96-well tissue culture plates (Costar Inc.) or WillCo-dishes (glass-bottomed dishes, with 0.17 mm cover glass for inverted microscopes) (WillCo), before treatment with carrier peptide. Cells were incubated (60 min, 5% CO2, 37° C., 95% humidity) with Cy3 linked to carrier peptide (H2N-Ala-Pro-Thr-Arg-Val-Leu-Pro-Pro-Leu-Val-Ala-Gly-Gly-Lys-OH) (SEQ ID No.6)) (range 1-100 μM). After incubation, the culture supernatant was decanted and the cells were washed. Cy3 (unlinked dye) (Amersham Pharmacia Biotech) was used as a control. Cellular fluorescence was detected using a CytoFluor multi-well plate reader (Applied Biosystems, Foster City, Calif., USA), (activating at 530 nm, emission 590 nm) (FIG. 1); a Nikon-Diaphot 300 fluorescence microscope, (activating at 490 nm, emission at 520 nm); and a Zeiss Microsystems confocal laser scanning microscope (LSM4) (activating at 515 nm, emission at 565 nm) (FIGS. 2 (a) and (b)). Cells were further studied for intracellular dye localization by a twenty-step Z-position sectional scanning of the cell (0.5 μm/section) using a 40× oil immersion lens (FIG. 3). […]

Data set [4] concerns NIH 3T3 cells. Kind of data set: Cellular delivery of nuclear localization sequence (confocal microscopy). It is filed as cell-based, Mouse. Conditions: overnight incubation, FIG. 10. How it is done: NIH 3T3 cells were cultured (see above) on WillCo-dishes (glass-bottomed dishes, with 0.17 mm cover glass for inverted microscopes) (WillCo), before treatment with carrier peptide linked to the nuclear localization sequence. Confluent NIH 3T3 cells were incubated (overnight, 5% CO2, 37° C., 95% humidity) in the presence of Cy3-[…]amide, before washing (×3) with PBS, and visualization using a Zeiss Microsystems confocal laser scanning microscope (LSM4) (activating at 515 nm, emission at 565 nm). Controls included Cy3 linked to carrier peptide (Cy3-Ala-Pro-Thr-Arg-Val-Leu-Pro-Pro-Leu-Val-Ala-Gly-Gly-Lys-OH), and unlabelled Cy3 (unlinked dye) (Amersham Pharmacia Biotech).

In the case of “Cy3 linked to carrier peptide (SEQ ID No.5): Cy3 dye linked through NHS ester to carrier peptide H2N-Ala-Pro-Thr-Arg-Ala-Val-Leu-Pro-Leu-Ala-Val-Gly-Gly-Lys-OH (APTRAVLPLAVGGK-OH; also: Cy3 dye linked through NHS ester, site not given here)”, the “delivered dye in the cytosol (supernatant fraction after digitonin)” value in the data set with NIH 3T3 is “significant amount of delivered agent in the cytosol; also recorded: significant amount of delivered dye into the cytosol”.

Consider “Ac-Ala-Pro-Thr-Arg-Val-Leu-Pro-Pro-Leu-Val-Ala-Gly-Gly-Lys(Cy5Q)-amide (Ac-APTRVLPPLVAGGK(Cy5Q)-NH2) [carrier peptide linked to Cy5Q]”, for which the “substrate conversion (Cy5Q fluorescence)” value with parental SK-OV cells is on record as “Little conversion”. Moreover, the “cellular uptake and substrate conversion (Cy5Q fluorescence)” value in data set [1] (FIG. 9) was “significant cellular internalization and substrate conversion”; in data set [1] (FIG. 9, listed as delivery peptide linked to Cy5Q) it was “significant cellular uptake and substrate conversion”.

In the case of “Cy3 linked to carrier peptide (SEQ ID No.4): Cy3 dye linked through NHS ester to carrier peptide H2N-Ala-Pro-Thr-Arg-Val-Pro-Leu-Pro-Leu-Pro-Val-Gly-Gly-Lys-OH (APTRVPLPLPVGGK-OH; also: Cy3 dye linked through NHS ester, site not given here)”, the “delivered dye in the cytosol (supernatant fraction after digitonin)” value in the data set on NIH 3T3 was “significant amount of delivered agent in the cytosol; also recorded: significant amount of delivered dye into the cytosol”.

Turning to “Cy3-Ala-Pro-Thr-Arg-Val-Leu-Pro-Pro-Leu-Val-Ala-Gly-Gly-Lys-OH (Cy3-APTRVLPPLVAGGK-OH)”, the “delivered dye in the cytosol (supernatant fraction after digitonin)” value with NIH 3T3 is “significant amount of delivered agent in the cytosol; also recorded: significant amount of delivered dye into the cytosol”. Besides, the “uptake of Cy3 across the cell population (dot plots)” value with NIH 3T3 cells [2] (FIG. 5) is recorded as “homogeneous uptake”. Besides, the “increase in fluorescence geometric mean between dye control and test cells” value in the data set with NIH 3T3 cells [2] (FL2 histogram, FIG. 6) was “approximately 5 fold”. Also, the “intracellular dye localization by twenty-step Z-position sectional scanning” value with NIH 3T3 cells [3] (confocal, 0.5 μm/section, FIG. 3) was “dye staining in the central portion of the cell, and little staining on the periphery or cell membrane”. The “uptake of Cy3 into NIH 3T3 cells (cellular fluorescence)” value with NIH 3T3 cells [3] (range 1-100 μM, 60 min, CytoFluor plate reader, FIG. 1) is “dose-dependent uptake”.

Turning to “Cy3 linked to carrier peptide (SEQ ID No.7): Cy3 dye linked through NHS ester to carrier peptide H2N-Ala-Pro-Thr-Arg-Val-Leu-Leu-Pro-Leu-Leu-Val-Gly-Gly-Lys-OH (APTRVLLPLLVGGK-OH; also: Cy3 dye linked through NHS ester, site not given here)”, the “delivered dye in the cytosol (supernatant fraction after digitonin)” value in the data set on NIH 3T3 is listed as “significant amount of delivered agent in the cytosol; also recorded: significant amount of delivered dye into the cytosol”.

Regarding “Cy3-Ser-Ser-Asp-Asp-Glu-Ala-Thr-Ala-Ser-Asp-Gln-His-Ser-Thr-Pro-Pro-Lys-Lys-Lys-Arg-Lys-Val-Glu-Asp-Pro-Lys-Ala-Pro-Thr-Arg-Val-Leu-Pro-Pro-Leu-Val-Ala-Gly-Gly-Lys-amide”, the “nuclear staining compared with the controls” value in the data set on NIH 3T3 cells [4] is listed as “more pronounced nuclear staining”.
